Assay [1] has as its target T1, Type-1 angiotensin II receptor (Homo sapiens) (UniProt P30556).
T1 sequence (whole entry): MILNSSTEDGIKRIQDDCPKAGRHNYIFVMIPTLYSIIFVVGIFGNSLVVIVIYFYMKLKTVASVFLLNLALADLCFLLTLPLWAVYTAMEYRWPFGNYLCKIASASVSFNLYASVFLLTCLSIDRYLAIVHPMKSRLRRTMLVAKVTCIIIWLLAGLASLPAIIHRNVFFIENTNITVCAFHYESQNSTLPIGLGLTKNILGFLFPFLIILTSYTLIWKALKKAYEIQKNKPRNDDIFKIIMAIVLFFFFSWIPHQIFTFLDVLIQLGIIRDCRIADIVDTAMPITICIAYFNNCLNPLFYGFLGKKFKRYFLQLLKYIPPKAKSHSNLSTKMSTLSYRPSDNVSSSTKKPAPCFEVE
Kind of assay: (§1) Displacement of 125[I-Sar1-Ile8]ANG II from human AT1 receptor expressed in HEK293 membranes after 1 hr by gamma counting. The format is cell membranes.

Assay [2] is described as follows: Antagonist activity at AT1 receptor in rat uterus assessed inhibition of ANG II-induced contraction.
The target in assay [3] is T2, Type-1 angiotensin II receptor (Homo sapiens, UniProt P30556).
T2 sequence (P30556 whole entry): T1 sequence (whole entry)
Described as §1. It counts as cell membranes.

This is an account of results in ChEMBL document CHEMBL2062490, “The discovery of new potent non-peptide Angiotensin II AT1 receptor blockers: a concise synthesis, molecular docking studies and biological evaluation of N-substituted 5-butylimidazole derivatives” (Eur J Med Chem, 2012).

Take `CCCCc1cnc(C(=O)O)n1Cc1ccc(-c2ccccc2-c2nn[nH]n2)cc1`: the Activity entry in assay [1] is “Dose-dependent effect”. Besides, the pA2 in assay [2] is listed as 7.83.

For the compound `CCCCc1c(Br)nc(CO)n1Cc1ccc(-c2ccccc2-c2nn[nH]n2)cc1`, the Activity entry in assay [1] was “Dose-dependent effect”. The pA2 in assay [2] amounted to 7.58.

For `CCCCc1cnc(CO)n1Cc1ccc(-c2ccccc2-c2nn[nH]n2)cc1`, the Activity result in assay [1] was “Dose-dependent effect”. This compound yielded a pA2 in assay [2] of 7.97.

Regarding `CCCCc1cnc(C(=O)O)n1Cc1ccc(-c2ccccc2-c2nnn[nH]2)cc1`, the IC50 in assay [3] (read-out: IC50) was 3 nM; in assay [3] (read-out: pIC50 (converted)), 3.47 nM.

Turning to `CCCCc1c(I)nc(CO)n1Cc1ccc(-c2ccccc2-c2nnn[nH]2)cc1`, the IC50 in assay [3] (read-out: IC50) amounted to 446 nM.

Consider `CCCCc1c(Br)nc(CO)n1Cc1ccc(-c2ccccc2-c2nnn[nH]2)cc1`, for which the IC50 in assay [3] (read-out: IC50) worked out at 117 nM.

As for `CCCCc1cnc(CO)n1Cc1ccc(-c2ccccc2C(=O)O)cc1`, the Activity entry in assay [1] is “Dose-dependent effect”. Besides, the IC50 in assay [3] (read-out: IC50) is 245 nM. For the same compound, the pA2 in assay [2] was found to be 6.19.

For the compound `CCCCc1nc(Cl)c(CO)n1Cc1ccc(-c2ccccc2-c2nnn[nH]2)cc1`, in assay [1], the Activity result was “Dose-dependent effect”.

With `CCCCc1cnc(C=O)n1Cc1ccc(-c2ccccc2-c2nn[nH]n2)cc1`, the Activity result in assay [1] is “Dose-dependent effect”. For the same compound, the IC50 in assay [3] (read-out: IC50) was 24 nM. The same compound registered a pA2 in assay [2] of 7.76.

On to `CCCCc1c(Cl)nc(CO)n1Cc1ccc(-c2ccccc2-c2nn[nH]n2)cc1`, for which the Activity result in assay [1] was “Dose-dependent effect”. Moreover, the IC50 in assay [3] (read-out: IC50) came out at 634 nM. The compound further registered a pA2 in assay [2] of 6.98.

`CCCCc1cnc(CO)n1Cc1ccc(-c2ccccc2-c2nnn[nH]2)cc1`: the IC50 in assay [3] (read-out: IC50) was found to be 30 nM.

For `CCCCc1c(I)nc(CO)n1Cc1ccc(-c2ccccc2-c2nn[nH]n2)cc1`, in assay [1], the Activity entry was “Dose-dependent effect”. Further, the pA2 in assay [2] came out at 7.35.

A word on the pA2: it is a measure of antagonist potency on a negative log scale.
